One data set deals with T1, h-NAAA (Homo sapiens, UniProt Q02083).
T1 construct: made in house; host or cells: HEK-293 cells stably overexpressing human NAAA; enzyme-enriched (lysosomal) lysate
T1 sequence (Q02083 29-125 limits assumed): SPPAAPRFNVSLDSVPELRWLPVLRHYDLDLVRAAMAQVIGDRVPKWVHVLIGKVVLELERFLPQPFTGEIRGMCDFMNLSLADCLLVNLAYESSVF
T1 sequence (Q02083 126-359 limits assumed): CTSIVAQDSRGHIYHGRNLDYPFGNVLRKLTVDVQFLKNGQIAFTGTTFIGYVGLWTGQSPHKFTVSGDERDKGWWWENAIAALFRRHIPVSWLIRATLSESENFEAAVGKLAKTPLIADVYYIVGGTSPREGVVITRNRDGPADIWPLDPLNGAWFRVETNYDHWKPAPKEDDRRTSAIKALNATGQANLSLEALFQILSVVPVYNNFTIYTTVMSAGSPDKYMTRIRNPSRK
As to the kind of experiment: Fluorogenic human-NAAA assay (h-NAAA, fluo.). The format is biochemical. The note with it: for LipE: LipE = pIC50 – c Log P (h-NAAA); for pIC50: Table S1; for pIC50 / IC50: h-NAAA (fluo.); for IC50: mean ± SD (n ≥ 3), n.a.: not active @50 μM (<10% inhibition).

Data set [1] can be described thus: Aqueous kinetic solubility assay. The format is physicochemical. To be noted: PBS buffer, pH 7.4, n = 3. On the procedure: The aqueous kinetic solubility was determined from a 10 mM DMSO stock solution of test compound (39 or 50) in PBS buffer at pH 7.4. The study was performed by incubating an aliquot of 10 mM DMSO stock solution in PBS (pH 7.4) to a target concentration of 250 μM (2.5% DMSO). The incubation was carried out under shaking at 25 °C for 24 h, followed by centrifugation at 21,100g for 30 min. The supernatant was further diluted (4:1) with CH3CN, and the dissolved test compound was quantified by UV at 215 nm on a Waters ACQUITY UPLC-MS system consisting of a single quadrupole detector (SQD) mass spectrometer equipped with an electrospray ionization interface and a photodiode array detector (PDA) from Waters Inc. (Milford, MA, USA). Electrospray ionization in positive mode was used in the mass scan range 100–500 Da. The PDA range was 210–400 nm. The analyses were run on an ACQUITY UPLC BEH C18 column (50 × 2.1 mm ID, particle size 1.7 μm) with a VanGuard BEH C18 precolumn (5 × 2.1 mm ID, particle size 1.7 μm), using 10 mM NH4OAc in H2O at pH 5 adjusted with AcOH (A) and 10 mM NH4OAc in CN–H2O (95:5) at pH 5 (B) as the mobile phase.

The text below walks through data of publication PMC8474119, “Discovery and SAR Evolution of Pyrazole Azabicyclo[3.2.1]octane Sulfonamides as a Novel Class of Non-Covalent N-Acylethanolamine-Hydrolyzing Acid Amidase (NAAA) Inhibitors for Oral Administration” (Journal of Medicinal Chemistry, 2021).

The term pIC50 denotes −log10 of the IC50, conventionally taken in molar units. Low values mean a large IC50, high ones a small IC50. What is called IC50 is the concentration that gives 50% inhibition. A lower IC50 goes with greater potency. What is called solubility (kinetic) is solubility judged after dilution from a stock solution rather than from solid. In the case of `CCCCc1ccc(O[C@H]2C[C@H]3CC[C@@H](C2)N3S(=O)(=O)c2c(C)n[nH]c2C)cc1` [Compound 39, (1R,3r,5S)-3-(4-Butylphenoxy)-8-((3,5-dimethyl-1H-pyrazol-4-yl)sulfonyl)-8-azabicyclo[3.2.1]octane], on h-NAAA, the LipE is 3.84, the pIC50 came out at 7.64 and the IC50 was 23 ± 4 nM. Besides, in data set [1], the kinetic solubility at 24 h was under 1 µM.
For `CCOCc1cnc(O[C@H]2C[C@H]3CC[C@@H](C2)N3S(=O)(=O)c2c(C)n[nH]c2C)cn1` [Compound 50, (1R,3r,5S)-8-((3,5-Dimethyl-1H-pyrazol-4-yl)sulfonyl)-3-((5-(ethoxymethyl)pyrazin-2-yl)oxy)-8-azabicyclo[3.2.1]octane], in that order: 6.83, 7.38, 42 ± 2 nM and over 250 µM.
